Like-named read-outs stand apart in the source and are kept apart here.
Experiments:
[1] = tested on: procollagen 1; settings: human dermal fibroblasts, 5 μg/ml, 48 hours
Protocol: Human dermal fibroblasts (Cascade Biologics) were cultured in 96-well tissue culture plates in growth medium (DMEM, 5% FBS, 1% L-Glut, and 1% antibiotics) and incubated for 24 hours at 37° C. […] Procollagen 1 levels were assayed using an ELISA kit from Takara (Procollagen Type-1 C-Peptide EIA Kit, Takara Bio Inc.) as per manufacturer's instructions.

[2] = tested on: Desmoglein 1; settings: keratinocytes
Protocol: Normal human keratinocytes were cultured in 96 well tissue culture treated plates in Epilife medium with growth supplements (Cascade Biologics Inc.). Cells were treated with test material or a dimethylsulfoxide vehicle control diluted in growth medium for 24 hours in a humidified 37° C. incubator with 10% CO2. After incubation, growth medium from each plate was removed and 100 μl of lysis buffer was added to each of the wells and placed in the humidified 37° C. incubator with 10% CO2 for 30 minutes. At the end of the incubation period, the cells were collected in freezer plates and placed in a −80° C. freezer, until analysis. Changes in mRNA for Desmoglein 3 (DSG3) after treatment were analysed using Panomics Quantigene multiplex assay that employs branched DNA technology.

[3] = tested on: Dermatopontin; settings: fibroblasts, 24 hours, p<0.05
Protocol: Normal human dermal fibroblasts were cultured in 96 well tissue culture treated plates, containing appropriate culture medium. Cells were treated with 1-aroyl-N-(2-oxo-3-piperidinyl)-2-piperazine carboxamide test material, diluted in growth medium, for 24 hours in a humidified 37° C. incubator with 10% CO2. After incubation, growth medium from each plate was removed and 100 μl of lysis buffer was added to the wells and placed in 37° C. incubator with10% CO2 for 30 minutes. At the end of incubation, the cells were collected in freezer plates and placed in −80° C. freezer, until analysis. Changes in mRNA for Dermatopontin after treatment were analysed using Panomics Quantigene multiplex assay that employs a branched DNA technology.

1-aroyl-N-(2-oxo-3-piperidinyl)-2-piperazine carboxamide
increase in collagen synthesis compared to control [1]: 75.4%
increase in Desmoglein 1 expression ([2]; 0.00005% of the test material, 24 hours): did not show a statistically significant increase
increase in Desmoglein 1 expression ([2]; concentration of 0.0005%, after 24 hours, average of three samples, p<0.05): 95%
stimulation in mRNA levels for Dermatopontin ([3]; 0.00005%): 43%
stimulation in mRNA levels for Dermatopontin ([3]; 0.0005%): 62%

From US20110251213A1, “Cosmetic Use of 1-Aroyl-N-(2-oxo-3-piperidinyl)-2-Piperazine Carbomamides and Related Compounds” (Avon Products, Inc., priority 2008, published 2011)
